Measured values published in PMC8856110, “Comparative chemical and biological hydrolytic stability of homologous esters and isosteres” (Journal of Enzyme Inhibition and Medicinal Chemistry, 2022).
Where two headings read alike, the source gives them in different places.

What was measured:
[1] = Base-catalysed (alkaline) hydrolysis with LiOH in THF:H2O; conditions: for half-life at 2.5 g/L: LiOH in tetrahydrofuran/water (6:4)
Protocol: The reaction was started by adding LiOH (24 μL, 1 mol/l), and the mixture was incubated at 37 °C for 5, 10, 20, and 30 min, under stirring in a water bath. At the end of the incubation period, an aliquot (20 μL) was transferred to a new tube, and subsequently, HCl (0.3 μL, 10% v:v) was added. The pH of the sample was checked to verify neutralisation, and acetonitrile (480 μL) was added. The final concentrations of all compounds in the solution were 2,5 g/L. Finally, the samples were filtered through PVDF syringe filters (Millex®: 0.22 µm pore size) and analysed by HPLC[15].
(§1) A Shimadzu Prominence HPLC system (Shimadzu, Tokyo, Japan) consisting of a UV/VIS Photodiode Array Detector (SPD-M20A), a binary pump (LC-20AD), a vacuum degasser (DGU-20A5), and an autosampler (SIL-20A) was used for analyses. The Chromatographic separation was achieved using a reversed phase (Kromasil® C18 HPLC Column: particle size 5 µm, L × I.D. 250 × 4.6 mm) preceded by a guard column (Phenomenex® C18: 4 × 3 mm). The column was held at ambient temperature (22 ± 2 °C). For the selection of the wavelength, the diode array-detector was used. To avoid interference with impurities, the longest suitable wavelength was chosen to evaluate the chromatograms, which allowed for sensitivity. The mobile phase was a combination of eluent A (0.1% formic acid) and eluent B (acetonitrile). Three mobile phases were carried out using an injection volume of 20 µL and an flow rate set at 1.0 ml/min. […] A:B 40:60 v/v. […] A:B 90:10 v/v; 4–8 min. linear-gradient from 90% A to A:B 60:40 v/v; 8–12 min. A:B 60:40 v/v.
The time in minutes required to reduce half the initial amount of each ester compound (i.e., half-life - t1/2) was calculated using the expression t1/2 = 0.693/a, with "a" being the slope of the natural log of concentration of the sample vs. the incubation time.

[2] = Rat plasma hydrolytic study; conditions: for half-life at 500 μM: male, Wistar, rat, rat plasma (80% in phosphate buffer), pH 7.4
Protocol: Rat plasma was obtained from male Wistar rats’ blood and diluted in phosphate buffer (pH 7.4) to obtain a final plasma concentration of 80%. […] The sample was incubated at 37 °C for 5, 10, 20, and 30 min, under stirring. At the end of the incubation time, the reaction was stopped by adding methanol (500 μL) and acetonitrile (500 μL), both in ice-cold temperature. The mixture was centrifuged at 13.500 rpm for 15 min at 4 °C. The organic phase was transferred to a microtube, and the IS (1.25 µL) was added. Finally, the samples were filtered through PVDF syringe filters (Millex®: 0.22 µm pore size) and analysed by HPLC[16].
as §1
The biologic hydrolysis of the esters 1–12 was carried out using rat plasma and rat liver microsomes. Each compound's half-life (t1/2) was calculated using the expression t1/2 = 0.693/a, as previously described.

[3] = Hydrolytic study using rat liver microsomes; assay type: in vitro ADME; conditions: male, Wistar, 1 mg/mL microsomal fraction, absence of cofactor, 37 °C, read-out: Hydrolysis t1/2 Rat liver microsomes
Protocol: Rat liver microsomes were obtained from male Wistar rats (280–330 g) and prepared according to the methodology described by Cabrera and co-workers[17]. After obtaining rat liver microsomes, the protein quantification was done by a bicinchoninic acid assay using a commercial protein determination kit obtained from Sigma-Aldrich (St Louis MO, USA)[18]. […] The reaction was stopped by adding organic solvents at ice-cold temperature (i.e., 500 µL of methanol and 500 µL of acetonitrile).
(ii) Compounds 8–9: 0–15 min. A:B 40:60 v/v. (iii) Compounds 13–16: 0–4 min. […] A:B 60:40 v/v.
Given those results, we decided to study the comparative metabolic behaviour of the esters 1 and 2, 5 and 6, 11 and 12, using another biological matrix rich in carboxylesterases. Therefore, the kinetics of hydrolysis was established using rat liver microsomes in the absence of cofactor in order to prevent eventual oxidative metabolic reactions catalysed by CYP450 or FMO.

[4] = tested on: carboxylesterase (CES); assay: Enzymatic inhibition study in rat plasma with CES inhibitor bis(p-nitrophenyl)phosphate; assay type: in vitro ADME; conditions: bis(p-nitrophenyl)phosphate 1, 10, 100 µM; ester 500 µM, 90 min
Protocol: The inhibitor was pre-incubated for 30 min at 37 °C, with (i) plasma (ii) rat liver microsomes and phosphate buffer pH 7,4 (final volume of 250 µL). […] The mixture was incubated again at 37 °C for 90 min under agitation. The analysis was performed by the same HPLC method used in the previous experiments. […] Data were expressed as percentages of inhibition.

[5] = buffer
[6] = pH 7.4
[7] = Hydrolysis t1/2 Alkaline, LiOH, THF:H2O, 37 °C

Question: For `COC(=O)c1ccccc1` [Compound 1, methyl benzoate], which half-life at 2.5 g/L [1] is on record?
Answer: 14 min

Question: And the half-life at 500 μM [2]?
Answer: 36 min

Question: And the half-life [3]?
Answer: 15 min

Question: Which results are given for `CCOC(=O)c1ccccc1` [Compound 2, ethyl benzoate]?
Answer: half-life at 2.5 g/L [1, 7]: 15 min; Hydrolysis t1/2 Alkaline ([1]; LiOH, THF:H2O, 37 °C): 14 min; half-life at 500 μM [2]: 17 min; Metabolism in rat plasma in the presence of the CES inhibitor [4]: strongly reduced; half-life [3]: 12 min

Question: Which half-life at 2.5 g/L [1] does the source give for `CCCOC(=O)c1ccccc1` [Compound 3, n-propyl benzoate] here?
Answer: 19 min

Question: And the half-life at 500 μM [2]?
Answer: 10 min

Question: Which half-life at 2.5 g/L [1] does the source give for `CCCCOC(=O)c1ccccc1` [Compound 4, n-butyl benzoate] here?
Answer: 21 min

Question: What about the half-life at 500 μM [2] of the same molecule?
Answer: 10 min

Question: For `O=C(Oc1ccccc1)c1ccccc1` [Compound 5, phenyl benzoate], which half-life at 2.5 g/L [1] is on record?
Answer: 11 min

Question: What about the half-life at 500 μM [2] of the same molecule?
Answer: 7 min

Question: What about the half-life [3] of the same molecule?
Answer: 10 min

Question: Which results are given for `O=C(OCc1ccccc1)c1ccccc1` [Compound 6, benzyl benzoate]?
Answer: half-life at 2.5 g/L [1]: 16 min; half-life at 500 μM [2]: 12 min; half-life [3]: 13 min

Question: What does the source list for `COC(=O)Cc1ccccc1` [Compound 8, methyl 2-phenylacetate]?
Answer: half-life at 2.5 g/L [1, 7]: 39 min; half-life at 500 μM [2]: 3 min; Loss of plasma metabolic stability relative to ester 1 ([2]; rat plasma, versus ester 1): twelve times less stable

Question: What does the source list for `CC(=O)Oc1ccccc1` [Compound 9]?
Answer: half-life at 2.5 g/L [1, 7]: 58 min; half-life at 500 μM [2]: 19 min

Question: With `CCOC(=O)c1ccccc1Br` [Compound 10, ethyl 2-bromobenzoate] as the molecule, how does the half-life at 2.5 g/L [1] read?
Answer: 15 min

Question: What about the half-life at 500 μM [2] of the same molecule?
Answer: 10 min

Question: With `CCOC(=O)c1cccc(Br)c1` [Compound 11, ethyl 3-bromobenzoate] as the molecule, how does the half-life at 2.5 g/L [1] read?
Answer: 25 min

Question: What about the half-life at 500 μM [2] of the same molecule?
Answer: 11 min

Question: What about the half-life [3] of the same molecule?
Answer: 12 min

Question: Which half-life at 2.5 g/L [1] does the source give for `CCOC(=O)c1ccc(Br)cc1` [Compound 12, ethyl 4-bromobenzoate] here?
Answer: 12 min

Question: And the half-life at 500 μM [2]?
Answer: 12 min

Question: And the half-life [3]?
Answer: 10 min

Question: For `CCOC(=O)c1ccc(N)cc1` [Compound 13, ethyl 4-aminobenzoate, reference compound], which half-life at 500 μM [2] is on record?
Answer: 13 min

Question: With `COC(=O)c1ccc(N)cc1` [Compound 14, methyl 4-aminobenzoate] as the molecule, how does the half-life at 500 μM [2] read?
Answer: 27 min

Question: What does the source list for `CCOC(=O)c1ncn2c1CN(C)C(=O)c1cc(F)ccc1-2` [Compound 15, flumazenil, reference compound]?
Answer: half-life at 500 μM [2]: 89 min; Times less stable to plasma hydrolysis than methyl homologous 16 ([2]; rat plasma, versus 16): 2.7 times

Question: For `COC(=O)c1ncn2c1CN(C)C(=O)c1cc(F)ccc1-2` [Compound 16, methyl 8-fluoro-5-methyl-6-oxo-4H-imidazo[1,5-a][1,4]benzodiazepine-3-carboxylate], which half-life at 500 μM [2] is on record?
Answer: 238 min

Question: Which “Hydrolysis t1/2 Alkaline” value [5] does the source give for methyl 2-naphthoate [Compound 7] here?
Answer: 29 min

Question: And the “Hydrolysis t1/2 Rat plasma” value [6]?
Answer: 17 min
